Assay results taken from US4745124A, “Orally effective anti-hypertensive agents” (priority 1983, dated 1988).
Where “and” joins values, the source holds several entries; their conditions need not be identical. Equal values may be shown once.

Columns and labels:
[1] = resistance of thioester compounds to alkaline hydrolysis; format: physicochemical
From the text: Therefore the observed inhibitory effects cannot be accounted for by postulating spontaneous hydrolysis of the thioester bond to regenerate the free sulfhydryl group.

[2] = tested on: pressor effects of angiotensin I; assay: oral effectiveness: blood pressure response to angiotensin I in anesthetized rats; format: in vivo, rat
In short: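 Fasted rats under pentobarbital anesthesia (50-60 mg/kg i.p.), ventilated, with carotid arterial pressure recorded; i.v. angiotensin I (80 ng, 160 ng or 400 ng/kg) or angiotensin II (80 ng) challenges repeated at timed intervals after oral gavage of compound (2-20 mg/kg, 10 mg, 17 or 23 μmol/kg) in aqueous NaHCO3.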

[3] = biological target: T1, angiotensin converting enzyme (human urinary ACE) (Homo sapiens, UniProt P12821); assay: ACE activity assay, I50 (Example 216A); format: biochemical; settings: human urinary ACE; Benzoyl-GlyHisLeu 1×10^-4 M; Hepes pH 8.0; 37° C; in vitro; read-out: I50
T1 construct: ACE purified from human urine; from tissue; host or cells: human urine (ultrafiltration and Sephacryl S-200, first eluting peak; prepared as in Ryan et al., Tissue and Cell 10, 555 (1978))
T1 sequence (P12821 30-1232 limits assumed): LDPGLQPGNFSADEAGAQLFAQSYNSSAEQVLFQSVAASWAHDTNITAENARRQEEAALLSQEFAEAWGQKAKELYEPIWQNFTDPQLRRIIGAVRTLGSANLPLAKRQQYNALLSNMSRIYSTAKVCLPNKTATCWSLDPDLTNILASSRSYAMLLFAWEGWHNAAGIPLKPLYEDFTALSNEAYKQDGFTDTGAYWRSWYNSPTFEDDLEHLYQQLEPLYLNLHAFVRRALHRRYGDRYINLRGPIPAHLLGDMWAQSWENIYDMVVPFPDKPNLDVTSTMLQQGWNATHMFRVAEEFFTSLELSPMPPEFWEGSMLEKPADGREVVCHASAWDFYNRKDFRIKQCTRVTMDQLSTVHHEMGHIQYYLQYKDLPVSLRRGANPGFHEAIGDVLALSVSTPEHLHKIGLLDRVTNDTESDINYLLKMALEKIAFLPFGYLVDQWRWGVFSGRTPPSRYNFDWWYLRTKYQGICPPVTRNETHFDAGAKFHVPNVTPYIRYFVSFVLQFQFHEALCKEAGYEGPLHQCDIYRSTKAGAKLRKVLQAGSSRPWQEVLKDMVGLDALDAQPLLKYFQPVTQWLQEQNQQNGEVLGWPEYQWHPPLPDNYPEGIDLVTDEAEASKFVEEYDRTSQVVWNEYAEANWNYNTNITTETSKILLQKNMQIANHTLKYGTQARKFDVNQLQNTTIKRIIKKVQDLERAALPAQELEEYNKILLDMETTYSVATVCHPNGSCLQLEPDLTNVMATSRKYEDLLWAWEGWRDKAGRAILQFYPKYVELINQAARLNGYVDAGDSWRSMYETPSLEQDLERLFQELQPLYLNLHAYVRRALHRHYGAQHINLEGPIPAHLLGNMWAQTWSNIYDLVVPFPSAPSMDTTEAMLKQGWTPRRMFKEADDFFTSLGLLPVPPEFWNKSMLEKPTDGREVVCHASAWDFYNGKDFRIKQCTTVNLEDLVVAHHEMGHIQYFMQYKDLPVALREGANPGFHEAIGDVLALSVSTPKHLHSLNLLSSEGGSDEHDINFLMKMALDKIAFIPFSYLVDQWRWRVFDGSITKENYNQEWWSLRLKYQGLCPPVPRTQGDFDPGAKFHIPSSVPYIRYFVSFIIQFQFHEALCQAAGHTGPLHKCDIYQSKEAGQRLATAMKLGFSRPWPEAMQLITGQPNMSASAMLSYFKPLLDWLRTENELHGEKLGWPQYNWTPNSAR

hydrolysis at pH 9.5 in 1M NaHCO3 ([1]; pH 9.5, 1M NaHCO3): not hydrolyzed
IC50 [3]: 40 nM and 10 nM
SMILES: C[C@H](CSC(=O)C(Cc1ccccc1)NC(=O)c1ccccc1)C(=O)N1CCC[C@H]1C(=O)O (stereo partly drawn) [Compound (I), 2-benzoylphenylalanylthio-2-D-methylpropanoyl-L-proline]
resistance to alkaline hydrolysis [1]: surprisingly resistant to alkaline hydrolysis
Blood Pressure Response to 80 ng of Angiotensin I ([2]; oral 2 mg/kg, 6 min, Rat 3): 111 % of control
Blood Pressure Response to 80 ng of Angiotensin I ([2]; oral 2 mg/kg, 12 min, Rat 3): 93 % of control
Blood Pressure Response to 80 ng of Angiotensin I ([2]; oral 2 mg/kg, 18 min, Rat 3): 81 % of control
Blood Pressure Response to 80 ng of Angiotensin I ([2]; oral 2 mg/kg, 24 min, Rat 3): 85 % of control
Blood Pressure Response to 80 ng of Angiotensin I ([2]; oral 2 mg/kg, 35 min, Rat 3): 56 % of control
Blood Pressure Response to 80 ng of Angiotensin I ([2]; oral 2 mg/kg, 58 min, Rat 3): 56 % of control
Blood Pressure Response to 80 ng of Angiotensin I ([2]; oral 2 mg/kg, 68 min, Rat 3): 52 % of control
Blood Pressure Response to 80 ng of Angiotensin I ([2]; oral 2 mg/kg, 88 min, Rat 3): 30 % of control
Blood Pressure Response to 80 ng of Angiotensin I ([2]; oral 2 mg/kg, 118 min, Rat 3): 37 % of control
Blood Pressure Response to 80 ng of Angiotensin I ([2]; oral 2 mg/kg, 138 min, Rat 3): 60 % of control
Blood Pressure Response to 80 ng of Angiotensin I ([2]; oral 2 mg/kg, 169 min, Rat 3): 37 % of control
Blood Pressure Response to 80 ng of Angiotensin I ([2]; oral 2 mg/kg, 185 min, Rat 3): 37 % of control
Blood Pressure Response to 80 ng of Angiotensin I ([2]; oral 2 mg/kg, 205 min, Rat 3): 44 % of control
Blood Pressure Response to 80 ng of Angiotensin I ([2]; oral 5 mg/kg, 6 min, Rat 2): 67 % of control
Blood Pressure Response to 80 ng of Angiotensin I ([2]; oral 5 mg/kg, 12 min, Rat 1): 41 % of control
Blood Pressure Response to 80 ng of Angiotensin I ([2]; oral 5 mg/kg, 12 min, Rat 2): 57 % of control
Blood Pressure Response to 80 ng of Angiotensin I ([2]; oral 5 mg/kg, 18 min, Rat 1): 36 % of control
Blood Pressure Response to 80 ng of Angiotensin I ([2]; oral 5 mg/kg, 24 min, Rat 2): 43 % of control
Blood Pressure Response to 80 ng of Angiotensin I ([2]; oral 5 mg/kg, 35 min, Rat 1): 23 % of control
Blood Pressure Response to 80 ng of Angiotensin I ([2]; oral 5 mg/kg, 35 min, Rat 2): 37 % of control
Blood Pressure Response to 80 ng of Angiotensin I ([2]; oral 5 mg/kg, 48 min, Rat 1): 18 % of control
Blood Pressure Response to 80 ng of Angiotensin I ([2]; oral 5 mg/kg, 48 min, Rat 2): 17 % of control
Blood Pressure Response to 80 ng of Angiotensin I ([2]; oral 5 mg/kg, 58 min, Rat 1): 23 % of control
Blood Pressure Response to 80 ng of Angiotensin I ([2]; oral 5 mg/kg, 58 min, Rat 2): 17 % of control
Blood Pressure Response to 80 ng of Angiotensin I ([2]; oral 5 mg/kg, 68 min, Rat 2): 20 % of control
Blood Pressure Response to 80 ng of Angiotensin I ([2]; oral 5 mg/kg, 78 min, Rat 2): 17 % of control
Blood Pressure Response to 80 ng of Angiotensin I ([2]; oral 5 mg/kg, 88 min, Rat 2): 13 % of control
Blood Pressure Response to 80 ng of Angiotensin I ([2]; oral 5 mg/kg, 118 min, Rat 1): 23 % of control
Blood Pressure Response to 80 ng of Angiotensin I ([2]; oral 5 mg/kg, 185 min, Rat 2): 27 % of control
Blood Pressure Response to 80 ng of Angiotensin I ([2]; oral 5 mg/kg, 205 min, Rat 2): 33 % of control
Blood Pressure Response to 80 ng of Angiotensin I ([2]; oral 5 mg/kg, 213 min, Rat 2): 33 % of control
Blood Pressure Response to 80 ng of Angiotensin I ([2]; oral 5 mg/kg, 226 min, Rat 2): 43 % of control
duration of drug action ([2]; oral, 2 or 5 mg/kg): > 226 min
